Measurements from patent US12458614B2, “Therapeutic agents for improved mobility and cognitive function and for treating neurodegenerative diseases and lysosomal storage disorders” (priority 2017, dated 2025).

Assays:
[1] = test system: patient with corticobasal syndrome; assay: Case study, corticobasal syndrome; type: in vivo, human
Procedure: Gait analysis was performed before treatment commenced.

[2] = test system: Mucopolysaccharidosis Type VII (MPS VII) patient fibroblasts; assay: Lysosomal volume via LysoTracker; type: cell-based, human; conditions: 1 mM, 6 days
wild-type (Npc1+/+) mice = assay: Weight data; type: in vivo, mouse; conditions: 0.1 g/kg from weaning
Description: (§1) Separate groups of Npc1^−/− and Npc1^+/+ mice were left untreated, as controls. Animals were weighed twice a week. Weights were averaged (mean) across all mice in each group and compared.

Npc1−/− mice = assay: Weight data; type: in vivo, mouse; conditions: 0.1 g/kg from weaning
Description: as §1

[3] = test system: patients with progressive supranuclear palsy; assay: Case studies, progressive supranuclear palsy; type: in vivo, human
Procedure: After 27 days of acetyl-leucine treatment, medication was stopped and the patient was re-examined 60 days later. […] Gait analysis was performed before treatment commenced. After 17 days of treatment, medication was stopped and the patient was re-examined 4 days later. […] Gait analysis was performed before treatment commenced. After three weeks of treatment, medication was stopped and the patient was re-examined.

[4] = test system: patients with ataxia telangiectasia; assay: Case studies, ataxia telangiectasia (SARA, SCAFI, video-oculography); type: in vivo, human
Description: For example, to evaluate overall neurological status, mDRS, a four-domain scale (ambulation, manipulation, language and swallowing), may be applied. Cerebellar function may be evaluated using SARA, an eight-item clinical rating scale (gait, stance, sitting, speech, fine motor function and taxis; range 0-40, where 0 is the best neurological status and 40 the worst), and SCAFI, comprising the 8-m-Walking-Time (8MW; performed by having patients walking twice as quickly as possible from one line to another excluding turning), 9-Hole-Peg-Test (9HPT) and the number of “PATA” repetitions over 10 s. Subjective impairment and quality of life may be evaluated using the EQ-5D-5L questionnaire and VAS. To assess ocular motor function, 3-dimensional videooculography (EyeSeeCam) may be used to measure the peak velocity of saccades, gain of smooth pursuit, peak slow phase velocity of gaze-evoked nystagmus (gaze-holding function), peak slow phase velocity of optokinetic nystagmus, and gain of horizontal vestibulo-ocular reflex. To evaluate the cognitive state, WAIS-R or WISC-IV, and MoCA, assessing different cognitive domains, including attention and concentration, executive functions, memory, language, visuoconstructional skills, conceptual thinking, calculations, and orientation with a maximum of 30 points and a cut-off score of 26, may be used. The skilled person will know how to perform these and other such tests.
After one month of treatment, the patient was re-evaluated. […] Examination indicated a Scale for Assessment and Rating of Ataxia (SARA) score of 15.5/40. Results from the patient's Spinocerebellar Ataxia Functional Index (SCAFI) analysis were: • Mean 8-meters Walking Test (8MW): 18.5 s • MW 9-Hole Pegboard Test Dominant (9HPTD) (right): 77.9 s • MW 9-Hole Pegboard Test Non-Dominant (9HPTND): 101.3 s • MW PATA Word Test: 13 • Visual analog scale (as evaluated by the patient): 85
After one month of treatment, the patient was re-evaluated. […] Examination indicated a Scale for Assessment and Rating of Ataxia (SARA) score of 23.5/40.
After slightly over 7 months of treatment, the patient was re-evaluated. […] Examination indicated a Scale for Assessment and Rating of Ataxia (SARA) score of 21.5/40.
After slightly over 1 month of treatment, the patient was re-evaluated. […] The patient also reported that drinking was easier and no longer needed a straw. […] Examination indicated a Scale for Assessment and Rating of Ataxia (SARA) score of 18.5/40.
After about 1 month of treatment, the patient was re-evaluated. […] On medication, they were able to walk with only holding the caregiver's hand.
The patient was evaluated after one month and six months of treatment, respectively. […] The patient, however, was suffering from anxiety, which would be expected to negatively influence the response.

[5] = test system: person with gait problems and postural imbalance; assay: Case study Example 25, quantitative gait analysis; type: in vivo, human
Procedure: The patient was then treated with Tanganil® (500 mg) in 3 separate doses throughout the day—1 g upon waking, 1 g prior to lunch and 1 g prior to the evening meal for one week, followed by 2 g upon waking, 1.5 g prior to lunch and 1.5 g prior to the evening meal.

[6] = test system: person with postural imbalance and cognitive decline; assay: Case study Example 27; type: in vivo, human
Procedure: The patient was examined clinically by means of the following clinical assessments: maximal distance to walk; timed Up and Go test; Scale for the Assessment and Rating of Ataxia (SARA). The patient was also examined by means of posturography after 1 month of the therapy with Tanganil® 500 mg (2 g upon waking, 1.5 g prior to lunch and 1.5 g prior to the evening meal). Medication was taken 30 minutes prior to the meal, or at least 2 hours after the meal. During treatment with Tanganil® (2 g upon waking, 1.5 g prior to lunch and 1.5 g prior to the evening meal) for 1-month, the following assessments were made: […]

[7] = test system: Mucopolysaccharidosis Type IIIB (MPS IIIB) patient fibroblasts; assay: Lysosomal volume via LysoTracker; type: cell-based, human; conditions: 1 mM, 6 days
[8] = PSP Patient 4, after three weeks of treatment
[9] = A-T Patient 3, after slightly over 7 months
[10] = A-T Patient 4, after slightly over 1 month
[11] = A-T Patient 5, after about 1 month
[12] = A-T Patient 5, after almost 7 months

SMILES: CC(=O)NC(CC(C)C)C(=O)O (racemic) [acetyl-DL-leucine]
- Frequency of falls ([1]; after 20 days): significant reduction in the frequency of falls
- Gait analysis parameters (summary) ([1]; after 20 days): objective improvement in gait analysis parameters
- Dizziness symptoms ([1]; after 20 days, 3 g then 5 g per day): improvement of dizziness symptoms
- Dizziness after suspension ([1]; two days after suspension of treatment): increase of dizziness symptoms
- LysoTracker fluorescence vs untreated disease fibroblasts [2]: trend in reducing LysoTracker fluorescence toward control level
- Effect on weight gain (wild-type (Npc1+/+) mice): no significant effect
- Delay of weight loss symptoms compared to the untreated group (Npc1−/− mice): two
- Symptoms after suspension ([3]; PSP Patient 1): symptoms worsened
- PSPRS Score ([3]; PSP Patient 1, re-examined about two months later): remained stable
- Dizziness and gait (patient report) ([3]; PSP Patient 1, under therapy, 27 days): significant reduction of dizziness and slight improvement of gait
- Gait / hypokinetic rigid syndrome (patient report) ([3]; PSP Patient 2, 17 days of treatment): no significant improvement of gait or hypokinetic rigid syndrome
- Gait / hypokinetic rigid syndrome (patient report) ([3]; PSP Patient 3, 17 days of treatment): no significant improvement of gait or hypokinetic rigid syndrome
- Symptoms without medication ([3]; PSP Patient 4, after three months without medication): progression of hypokinetic-rigid syndrome
- Gait analysis (summary) [3, 8]: improvement of gait with increased speed, max. speed, and step cycle length and reduction of track width, double stance and coefficient of variation
- Gait and falls (patient report) [3, 8]: gait with increased subjective security and with reduced frequency of falls
- Video-oculography (summary) ([4]; A-T Patient 1, after one month): significant improvement of fixation stability and decrease of intensity of downbeat-nystagmus
- Caregiver report ([4]; A-T Patient 1, after one month, 5 g/day): improvement of speech and gait
- 9-Hole Pegboard Test Dominant (9HPTD) ([4]; A-T Patient 2, after one month): 300 s
- Mean 8-meters Walking Test (8MW) ([4]; A-T Patient 2, after one month): not able to perform without support
- Video-oculography (summary) ([4]; A-T Patient 2, after one month): improvement of fixation stability and significant improvement of downbeat-nystagmus intensity
- Caregiver report ([4]; A-T Patient 2, after one month, 5 g/day): improvement of fine motor function, hand tremor, and speech
- Mean 8-meters Walking Test (8MW) [4, 9]: not able to perform
- Video-oculography (summary) [4, 9]: significant improvement of fixation stability and decrease of intensity of gaze-holding nystagmus at all positions
- Caregiver and patient report ([4]; A-T Patient 3, after slightly over 7 months, 5 g/day): general improvement of well-being
- Mean 8-meters Walking Test (8MW) [4, 10]: not able to perform
- Video-oculography (summary) [4, 10]: general improvement of fixation stability and decrease of intensity of spontaneous and gaze-holding nystagmus at all positions
- Patient and family report ([4]; A-T Patient 4, after slightly over 1 month, 5 g/day): improvement in handwriting
- Body weight gained [4, 11]: 1.5 kg
- Mean 8-meters Walking Test (8MW) [4, 11]: not able to walk without support
- Gait (reported by parent) ([4]; A-T Patient 5, after about 1 month, 5 g/day): significant improvement of stability of the gait
- Further body weight gained [4, 12]: 3 kg
- Gait (reported by parent) [4, 12]: significantly more stable gait
- Clinical re-evaluation ([4]; A-T Patient 5, after slightly over a year): improved social interaction, activity, and agility
- Adverse observation ([4]; A-T Patient 5, after slightly over a year, suspected infantile migraine): repeatedly occurring frontal localized pain with vomiting in the morning
- Clinical evaluation ([4]; A-T Patient 6, after one month, 1.5 g/day then 3 g/day): increased fine motor skills with reduced hand tremor
- Clinical evaluation ([4]; A-T Patient 6, after six months): stable general conditions, stable gait and stance, and improved handwriting
- Tolerability ([5]; 3 g/day one week then 5 g/day): very well tolerated
- Gait and imbalance (patient and child report) ([5]; 3 weeks after beginning treatment): gait and imbalance was significantly improved
- % of the time in the gait cycle in which both feet are in contact with the ground ([5]; after 3 weeks' treatment): 25.5%
- Cadence ([5]; after 3 weeks' treatment): 100 steps/minute
- Coefficient of variation (CV) of stride time ([5]; after 3 weeks' treatment): 1.8
- Maximum walking speed ([5]; after 3 weeks' treatment): 157 cm/s
- Natural walking speed ([5]; after 3 weeks' treatment): 96 cm/s
- Spreading width ([5]; after 3 weeks' treatment): 8.1 cm
- Step cycle length ([5]; after 3 weeks' treatment): 116 cm
- Subjective measurements ([6]; 1 month on medication): more energy, was more agile and interactive
- SARA ([6]; 1 month on medication, baseline 6.5/40): 2/40
- Mean timed 8-meter-walking test ([6]; 1 month on medication, baseline 6.5 sec): 4.4 s
- Stance up-and-go test ([6]; 1 month on medication, baseline 25.4 sec): 21.2 s
- Maximal distance to walk ([6]; 1 month, 2 g/1.5 g/1.5 g per day, baseline 1 km): 1.5 km
- Side effects ([6]; 2 g/1.5 g/1.5 g per day dosage regimen): Sleepiness
- Frequency of falls ([6]; lower dosage 1 g/1 g/1 g for over 4 months): 0-1 /month
- Falls ([6]; therapy period of 1 month): did not record any falls
- LysoTracker fluorescence vs untreated disease fibroblasts [7]: statistically significant reduction in LysoTracker fluorescence toward control level
